Results: patent US20220281831A1, “FUSED-GLUTARIMIDE CRBN LIGANDS AND USES THEREOF” (Kymera Therapeutics, Inc., priority 2019, published 2022)

Target: His-tagged CRBN-DDB1 complex (Homo sapiens, UniProt Q96SW2)
Experiment: Time-Resolved Fluorescence Resonance Energy Transfer (TR-FRET / HTRF) CRBN binding assay, displacement of Cy5-labeled thalidomide
Conditions: His-CRBN-DDB1, Cy5-thalidomide 8 nM, 1 hour room temperature
Description: Time-Resolved Fluorescence Resonance Energy Transfer (TR-FRET) Assay.
Equal volumes of His-tagged CRBN-DDB1 complex (56 nM) was mixed with Eu-cryptate labeled Anti-6HIS-monoclonal antibody (50× dilution from the commercial stock solution, Vender: Cisbio, Cat. #61HI2KLA) in a final buffer containing 20 mM HEPES pH 7.0, 150 mM NaCl, 0.005% Tween-20. […] The mixture were incubated at room temperature for 1 hour. FRET signals were measured on an EnVision plate reader (Perkin Elmer) by exciting at 340 nm and recording emission at both 615 nm as no FRET control and 665 nm as the FRET signals with a 60 microsecond delay. FRET efficiency was calculated as the ratio of fluorescent signals at […]. Quantitative loss of FRET efficiency as a function of compound concentrations was fitted by a four-parameter Logistic Function using GraphPad Prism 7.0 and the IC50 values were reported for each compound.
The compound numbers correspond to the compound numbers in Table 1.

Sequence of His-tagged CRBN-DDB1 complex (Q96SW2 whole entry): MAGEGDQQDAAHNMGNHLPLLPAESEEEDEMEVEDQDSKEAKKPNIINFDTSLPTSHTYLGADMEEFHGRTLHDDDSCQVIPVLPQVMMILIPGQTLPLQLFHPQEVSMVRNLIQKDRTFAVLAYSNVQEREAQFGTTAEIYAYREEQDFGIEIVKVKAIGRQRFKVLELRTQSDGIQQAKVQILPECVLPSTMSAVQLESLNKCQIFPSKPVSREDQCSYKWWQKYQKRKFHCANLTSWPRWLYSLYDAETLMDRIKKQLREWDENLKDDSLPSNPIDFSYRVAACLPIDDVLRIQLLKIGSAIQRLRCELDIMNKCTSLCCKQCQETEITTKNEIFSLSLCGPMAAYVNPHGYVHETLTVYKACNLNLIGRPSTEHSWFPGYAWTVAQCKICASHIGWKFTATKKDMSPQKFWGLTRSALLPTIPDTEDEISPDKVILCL
Sequence of His-tagged CRBN-DDB1 complex (Q16531 whole entry partner): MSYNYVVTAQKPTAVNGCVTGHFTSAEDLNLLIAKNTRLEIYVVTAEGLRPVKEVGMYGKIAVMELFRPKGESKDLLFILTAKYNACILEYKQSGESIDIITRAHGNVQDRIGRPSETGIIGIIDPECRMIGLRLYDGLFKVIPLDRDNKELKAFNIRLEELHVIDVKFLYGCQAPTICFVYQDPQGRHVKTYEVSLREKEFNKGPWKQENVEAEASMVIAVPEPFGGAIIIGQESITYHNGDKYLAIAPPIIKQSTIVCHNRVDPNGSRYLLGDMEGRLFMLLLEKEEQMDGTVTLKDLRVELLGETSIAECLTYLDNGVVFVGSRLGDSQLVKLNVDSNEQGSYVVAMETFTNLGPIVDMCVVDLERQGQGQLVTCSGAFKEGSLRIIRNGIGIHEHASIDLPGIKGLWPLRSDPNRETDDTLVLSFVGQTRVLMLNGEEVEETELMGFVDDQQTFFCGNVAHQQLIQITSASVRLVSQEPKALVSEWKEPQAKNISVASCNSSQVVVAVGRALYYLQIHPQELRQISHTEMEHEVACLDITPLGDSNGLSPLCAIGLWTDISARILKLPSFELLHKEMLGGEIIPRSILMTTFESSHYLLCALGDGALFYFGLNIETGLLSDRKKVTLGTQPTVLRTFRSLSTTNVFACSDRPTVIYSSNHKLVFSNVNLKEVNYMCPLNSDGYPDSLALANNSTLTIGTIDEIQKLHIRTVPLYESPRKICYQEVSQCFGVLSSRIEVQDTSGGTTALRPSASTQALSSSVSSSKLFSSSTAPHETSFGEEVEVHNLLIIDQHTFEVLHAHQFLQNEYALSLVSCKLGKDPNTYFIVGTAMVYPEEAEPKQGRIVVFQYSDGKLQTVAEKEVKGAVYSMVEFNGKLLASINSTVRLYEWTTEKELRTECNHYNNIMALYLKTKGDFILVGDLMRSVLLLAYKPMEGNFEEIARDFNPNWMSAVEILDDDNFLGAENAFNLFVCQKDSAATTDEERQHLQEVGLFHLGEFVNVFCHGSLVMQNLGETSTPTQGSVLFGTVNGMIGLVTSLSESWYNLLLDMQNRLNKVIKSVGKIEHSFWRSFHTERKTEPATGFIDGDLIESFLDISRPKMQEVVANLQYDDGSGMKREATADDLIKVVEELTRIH

Row | Compound | IC50
1 | O=C1NC(=O)[C@@H]2CN(C3CCC3)C[C@H]12 [Compound I-163] | > 100 µM
2 | O=C1CC2(C(=O)N1)C(=O)Nc1ccccc12 (stereo not drawn) [Compound I-174] | > 100 µM
3 | N#Cc1cccc(N2C[C@@H]3C(=O)NC(=O)[C@@H]3C2)c1 [Compound I-179] | > 100 µM
4 | CS(=O)(=O)c1cccc(N2C[C@@H]3C(=O)NC(=O)[C@@H]3C2)c1 [Compound I-180] | > 100 µM
5 | COCc1cccc(N2C[C@@H]3C(=O)NC(=O)[C@@H]3C2)c1 [Compound I-181] | > 100 µM
6 | Cn1c(=O)[nH]c2cccc(Br)c2c1=O [Compound I-190] | > 100 µM
7 | Cn1c(=O)c2cc(Br)ccc2n(C)c1=O [Compound I-191] | > 100 µM
8 | Cn1c(=O)c2c(Br)cccc2n(C)c1=O [Compound I-192] | > 100 µM
9 | O=C1CCc2cccc(Oc3ccccc3)c2C(=O)N1 [Compound I-209, 9-Phenoxy-4,5-dihydro-2H-2-benzazepine-1,3-dione] | > 100 µM
10 | O=C1Cc2cccc(Oc3ccccc3C(F)(F)F)c2C(=O)N1 [Compound I-210, 8-[2-(Trifluoromethyl)phenoxy]-2,4-dihydroisoquinoline-1,3-dione] | < 10 µM
11 | CC(C)c1ccccc1Oc1cccc2c1C(=O)NC(=O)C2 [Compound I-211, 8-(2-Isopropylphenoxy)-2,4-dihydroisoquinoline-1,3-dione] | < 10 µM
12 | CC(C)(C)OC(=O)NCC#Cc1ccccc1Oc1cccc2c1C(=O)NC(=O)C2 [Compound I-212] | 30 to 100 µM
13 | CC(C)(C)OC(=O)NCCCCCC#Cc1ccccc1Oc1cccc2c1C(=O)NC(=O)C2=O [Compound I-242] | < 10 µM
14 | Cc1ccc(Oc2ccccc2)c2c1CC(=O)NC2=O [Compound I-279] | 30 to 100 µM
15 | CN(Cc1ccccc1)C(=O)c1cccc2c1C(=O)NC(=O)C2 [Compound I-280] | 30 to 100 µM
16 | O=C1Cc2cccc(NCc3ccccc3)c2C(=O)N1 [Compound I-281] | < 10 µM
17 | CC(C1CC1)N1C[C@@H]2C(=O)NC(=O)[C@@H]2C1 (stereo partly drawn) [Compound I-282] | > 100 µM
18 | CC(=O)N1C[C@@H]2C(=O)NC(=O)[C@@H]2C1 [Compound I-284] | > 100 µM
19 | O=C1NC(=O)[C@@H]2CN(Cc3c[nH]c4ccccc34)C[C@H]12 [Compound I-288] | > 100 µM
20 | O=C1NC(=O)[C@@H]2CN(C3Cc4ccccc4C3)C[C@H]12 [Compound I-289] | > 100 µM

Row | Compound | IC50
21 | COc1ccc(CN2C[C@@H]3C(=O)NC(=O)[C@@H]3C2)cn1 [Compound I-293] | > 100 µM
22 | CN(C)c1ccc(CN2C[C@@H]3C(=O)NC(=O)[C@@H]3C2)cc1 [Compound I-294] | > 100 µM
23 | O=C1NC(=O)[C@@H]2CN(Cc3ccc([N+](=O)[O-])s3)C[C@H]12 [Compound I-295] | 30 to 100 µM
24 | O=C1NC(=O)[C@@H]2CN(C3CCN(Cc4ccccc4)CC3)C[C@H]12 [Compound I-296] | > 100 µM
25 | O=C1NC(=O)[C@@H]2CN(Cc3c[nH]cn3)C[C@H]12 [Compound I-297] | > 100 µM
26 | O=C1NC(=O)[C@@H]2CN(CCc3ccccc3)C[C@H]12 [Compound I-298] | > 100 µM
27 | Cc1ccc(CN2C[C@@H]3C(=O)NC(=O)[C@@H]3C2)cc1 [Compound I-299] | > 100 µM
28 | O=C1NC(=O)[C@@H]2CN(Cc3ccc[nH]3)C[C@H]12 [Compound I-300] | > 100 µM
29 | O=C1NC(=O)[C@@H]2CN(C(=O)c3cnccn3)C[C@H]12 [Compound I-307] | > 100 µM
30 | Cc1ncoc1C(=O)N1C[C@@H]2C(=O)NC(=O)[C@@H]2C1 [Compound I-309] | > 100 µM
31 | O=C1NC(=O)[C@@H]2CN(Cc3ccc(Oc4ccccc4)cc3)C[C@H]12 [Compound I-311] | 30 to 100 µM
32 | CCCCOc1ccc(CN2C[C@@H]3C(=O)NC(=O)[C@@H]3C2)cc1 [Compound I-312] | > 100 µM
33 | O=C1NC(=O)[C@@H]2CN(Cc3ccc(F)c4ccccc34)C[C@H]12 [Compound I-313] | > 100 µM
34 | Cc1ccc(CN2C[C@@H]3C(=O)NC(=O)[C@@H]3C2)o1 [Compound I-314] | > 100 µM
35 | O=C1NC(=O)[C@@H]2CN(Cc3cccc4cccnc34)C[C@H]12 [Compound I-315] | > 100 µM
36 | O=C1NC(=O)[C@@H]2CN(Cc3cc4ccccc4o3)C[C@H]12 [Compound I-316] | 30 to 100 µM
37 | O=C1NC(=O)[C@@H]2CN(C(=O)c3cncs3)C[C@H]12 [Compound I-318] | > 100 µM
38 | O=C1NC(=O)[C@@H]2CN(Cc3cccc4ccccc34)C[C@H]12 [Compound I-325] | > 100 µM
39 | O=C1NC(=O)[C@@H]2CNC[C@H]12 [Compound I-327] | > 100 µM
40 | O=C1NC(=O)[C@@H]2CN(Cc3ccccc3)C[C@H]12 [Compound I-328] | > 100 µM

Now from value to molecule:

Row | IC50 | Compound
41 | > 100 µM | Cc1cccc(N2C[C@@H]3C(=O)NC(=O)[C@@H]3C2)c1 [Compound I-161]
42 | > 100 µM | COC(=O)c1ccc(N2CCC3(CC2)CC(=O)NC(=O)C3)cc1 [Compound I-162]
43 | > 100 µM | Cc1cccc(C(=O)N2C[C@@H]3C(=O)NC(=O)[C@@H]3C2)n1 [Compound I-164]
44 | > 100 µM | COc1cccc(C(=O)N2C[C@@H]3C(=O)NC(=O)[C@@H]3C2)n1 [Compound I-165]
45 | > 100 µM | O=C1NC(=O)[C@@H]2CN(C(=O)c3cc(C(F)(F)F)ccn3)C[C@H]12 [Compound I-166]
46 | > 100 µM | O=C1NC(=O)[C@@H]2CN(C(=O)c3ccc4ccccc4n3)C[C@H]12 [Compound I-167]
47 | > 100 µM | O=C1NC(=O)[C@@H]2CN(C(=O)c3cc4ccccc4cn3)C[C@H]12 [Compound I-168]
48 | > 100 µM | Nc1cccc(C(=O)N2C[C@@H]3C(=O)NC(=O)[C@@H]3C2)c1 [Compound I-169]
49 | > 100 µM | NC(=O)c1ccccc1N1C[C@@H]2C(=O)NC(=O)[C@@H]2C1 [Compound I-170]
50 | > 100 µM | CC(=O)Nc1ccccc1N1C[C@@H]2C(=O)NC(=O)[C@@H]2C1 [Compound I-171]
51 | > 100 µM | O=CNc1ccccc1N1C[C@@H]2C(=O)NC(=O)[C@@H]2C1 [Compound I-172]
52 | > 100 µM | Nc1ccc2c(c1)C1(CC(=O)NC1=O)C(=O)N2 (stereo not drawn) [Compound I-173]
53 | > 100 µM | CNC(=O)c1cccc(N2C[C@@H]3C(=O)NC(=O)[C@@H]3C2)c1 [Compound I-177]
54 | > 100 µM | CN(C)C(=O)c1cccc(N2C[C@@H]3C(=O)NC(=O)[C@@H]3C2)c1 [Compound I-178]
55 | > 100 µM | COc1ccccc1C(=O)N1C[C@@H]2C(=O)NC(=O)[C@@H]2C1 [Compound I-182]
56 | > 100 µM | CN1C(=O)C2(CC(=O)NC2=O)c2cc(N)ccc21 (stereo not drawn) [Compound I-183]
57 | > 100 µM | CN1C(=O)C2(CC(=O)NC2=O)c2ccccc21 (stereo not drawn) [Compound I-184]
58 | > 100 µM | O=C1CC2(Nc3ccccc3C2=O)C(=O)N1 (stereo not drawn) [Compound I-195, 1H-spiro[indole-2,3′-pyrrolidine]-2′,3,5′-trione]
59 | > 100 µM | O=C1NC(=O)c2cc(NC(=O)N3CCCCC3)ccc21 [Compound I-283]

Row | IC50 | Compound
60 | > 100 µM | O=C1NC(=O)[C@@H]2CN(C(=O)c3ccc(Cl)cc3)C[C@H]12 [Compound I-286]
61 | > 100 µM | O=C1NC(=O)[C@@H]2CN(Cc3cccc(O)c3)C[C@H]12 [Compound I-287]
62 | > 100 µM | O=C1NC(=O)[C@@H]2CN(C(=O)c3ccc(O)cc3)C[C@H]12 [Compound I-291]
63 | > 100 µM | O=C1NC(=O)[C@@H]2CN(C(=O)c3ccnc(Cl)c3)C[C@H]12 [Compound I-301]
64 | > 100 µM | O=C1NC(=O)[C@@H]2CN(C(=O)c3n[nH]c4ccccc34)C[C@H]12 [Compound I-302]
65 | > 100 µM | O=C1NC(=O)[C@@H]2CN(C(=O)COCc3ccccc3)C[C@H]12 [Compound I-303]
66 | > 100 µM | O=C1NC(=O)[C@@H]2CN(C(=O)c3cccnn3)C[C@H]12 [Compound I-304]
67 | > 100 µM | Cc1cccc(CC(=O)N2C[C@@H]3C(=O)NC(=O)[C@@H]3C2)c1 [Compound I-305]
68 | > 100 µM | O=C1NC(=O)[C@@H]2CN(C(=O)C3CC3)C[C@H]12 [Compound I-306]
69 | > 100 µM | O=C1NC(=O)[C@@H]2CN(C(=O)c3ccco3)C[C@H]12 [Compound I-308]
70 | > 100 µM | Cc1cc(C(=O)N2C[C@@H]3C(=O)NC(=O)[C@@H]3C2)ccn1 [Compound I-310]
71 | 30 to 100 µM | O=C1NC(=O)[C@@H]2CN(C(=O)c3ccc4ccccc4c3)C[C@H]12 [Compound I-317]
72 | > 100 µM | O=C1NC(=O)[C@@H]2CN(C(=O)c3ccc4ccoc4c3)C[C@H]12 [Compound I-320]
73 | > 100 µM | O=C1NC(=O)[C@@H]2CN(C(=O)c3cccs3)C[C@H]12 [Compound I-321]
74 | > 100 µM | O=C1NC(=O)[C@@H]2CN(C(=O)c3ccc(F)cc3)C[C@H]12 [Compound I-322]
75 | > 100 µM | Cc1cccc(C(=O)N2C[C@@H]3C(=O)NC(=O)[C@@H]3C2)c1 [Compound I-323]
76 | > 100 µM | COc1ccc(C(=O)N2C[C@@H]3C(=O)NC(=O)[C@@H]3C2)cn1 [Compound I-324]
77 | > 100 µM | CC(=O)Nc1ccc2c(c1)C(=O)NC2=O [Compound I-326]
78 | > 100 µM | O=C1CC2(CCN(Cc3cccc4cccnc34)CC2)CC(=O)N1 [Compound I-329]
